Among the data in ChEMBL document CHEMBL1147725, “Identification and biological characterization of 6-aryl-7-isopropylquinazolinones as novel TRPV1 antagonists that are effective in models of chronic pain” (J Med Chem, 2006) are IC50 and solubility values, retold here.

In brackets after ≈: the same amount, converted by molar mass.

Data set [1] has as its target Transient receptor potential cation channel subfamily V member 1 (Homo sapiens, UniProt Q8NER1). Put plainly: Inhibition of calcium influx evoked by capsaicin in human TRPV1 expressing cells by fluorescence assay. Format: functional.
The nature of data set [2]: Aqueous solubility at pH 6.8 and 25 degC. Format: physicochemical. The settings on record: aqueous medium.

A word on the IC50: it is the point on the concentration scale where inhibition reaches its midpoint. The solubility is how much of the substance goes into solution per volume. The low end stands for a poorly soluble substance, the high end for a readily soluble substance.

Transient receptor potential cation channel subfamily V member 1, sequence (Q8NER1 whole entry): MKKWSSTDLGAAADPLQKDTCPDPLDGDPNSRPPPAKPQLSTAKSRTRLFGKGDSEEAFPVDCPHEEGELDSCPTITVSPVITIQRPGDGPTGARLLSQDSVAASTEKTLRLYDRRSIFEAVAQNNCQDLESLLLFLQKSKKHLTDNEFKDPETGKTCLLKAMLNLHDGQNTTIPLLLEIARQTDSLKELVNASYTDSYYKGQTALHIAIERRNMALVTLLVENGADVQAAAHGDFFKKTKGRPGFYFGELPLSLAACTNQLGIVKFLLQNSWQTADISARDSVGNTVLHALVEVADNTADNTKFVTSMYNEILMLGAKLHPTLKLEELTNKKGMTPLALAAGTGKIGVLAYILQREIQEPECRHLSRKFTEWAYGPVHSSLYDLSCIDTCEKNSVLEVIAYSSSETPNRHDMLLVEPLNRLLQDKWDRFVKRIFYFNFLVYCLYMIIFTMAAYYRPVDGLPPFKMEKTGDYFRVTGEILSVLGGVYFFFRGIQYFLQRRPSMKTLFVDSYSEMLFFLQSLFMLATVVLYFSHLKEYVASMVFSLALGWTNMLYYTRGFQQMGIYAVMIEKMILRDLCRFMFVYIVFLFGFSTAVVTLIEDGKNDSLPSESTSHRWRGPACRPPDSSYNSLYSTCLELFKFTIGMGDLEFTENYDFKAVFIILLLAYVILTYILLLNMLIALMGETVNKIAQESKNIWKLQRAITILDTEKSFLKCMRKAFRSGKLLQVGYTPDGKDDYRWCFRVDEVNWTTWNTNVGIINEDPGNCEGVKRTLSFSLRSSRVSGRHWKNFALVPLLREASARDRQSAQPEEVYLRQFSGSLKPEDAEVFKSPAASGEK

In the case of `Oc1cc2c(cc1O)CN(C(=S)NCCc1ccc(Cl)cc1)CCC2` [CAPSAZEPINE], the IC50 in data set [1] worked out at 0.334 µM. Consider `Cc1nc(O)c2cc(-c3ccc(Cl)c(OCC4CCC4)c3)c(C(C)C)cc2n1`, for which the IC50 in data set [1] was determined as 0.144 µM. Same read-out and setting: under `CCOc1cc(-c2cc3c(=O)[nH]c(C)nc3cc2C(C)C)c(Cl)cc1Cl` stands 0.037 µM. Same read-out and setting: under `CCCCOc1cc(-c2cc3c(=O)[nH]c(C)nc3cc2C(C)C)ccc1Cl` stands 0.082 µM.

`Cc1nc(O)c2cc(-c3ccc(Cl)c(OC(C)C)c3)c(C(C)C)cc2n1`: the concentration for half-maximal inhibition (IC50) in data set [1] was 0.201 µM. Turning to `CCc1nc2cc(C(C)C)c(-c3ccc(Cl)cc3)cc2c(=O)[nH]1`, the IC50 in data set [1] is over 1 µM. Take `CCCOc1cc(-c2cc3c(=O)[nH]c(C)nc3cc2C(C)C)ccc1Cl`: the half-inhibitory concentration (IC50) in data set [1] was 0.04 µM.

In the case of `Cc1nc(O)c2cc(-c3ccc(Cl)c(OCCO)c3)c(C(C)C)cc2n1`, the IC50 in data set [1] is 0.557 µM. Regarding `CCOc1cc(-c2cc3c(=O)[nH]c(C)nc3cc2C(C)C)ccc1OC`, in data set [1], the half-maximal inhibitory concentration (IC50) was 0.286 µM.

Turning to `Cc1nc(O)c2cc(-c3ccc(C)c(Cl)c3)c(C(C)C)cc2n1`, in data set [1], the IC50 stood at 0.042 µM.

Take `Cc1nc2cc(C(C)C)c(-c3ccc(Cl)cc3)cc2c(=O)[nH]1`: in data set [2], the solubility was 4 µg/mL (≈ 12.8 µM). For the same molecule, in data set [1], the IC50 amounted to 0.013 µM.

Turning to `COc1cc(-c2cc3c(=O)[nH]c(C)nc3cc2C(C)C)ccc1Cl`, the 50% inhibitory concentration (IC50) in data set [1] was determined as 0.014 µM.
